Test results: patent US8217066B2, “Compounds as lysophosphatidic acid receptor antagonists” (Amira Pharmaceuticals, Inc., priority 2009, dated 2012)

The molecules below were run on A2058 human melanoma cells (assay: LPA1 chemotaxis assay). Conditions: 100 nM LPA, read-out: inhibition of LPA-driven chemotaxis, IC50.
Type: cell-based
Description: Chemotaxis of the A2058 human melanoma cells was measured using the Neuroprobe ChemoTx® System plates (8 μm pore size, 5.7 mm diameter sites). The filter sites were coated with 0.001% fibronectin (Sigma) in 20 mM Hepes, pH 7.4 and allowed to dry. A2058 cells were serum-starved for 24 hours, then harvested with Cell Stripper and resuspended in DMEM containing 0.1% fatty-acid-free bovine serum albumin (BSA) to a concentration of 1×10^6/ml. Cells were mixed with an equal volume of test compound (2×) in DMEM containing 0.1% fatty-acid-free BSA and incubated at 37° C. for 15 minutes. LPA (100 nM in DMEM containing 0.1% fatty-acid-free BSA) or vehicle was added to each well of the lower chamber and 50 μl of the cell suspension/test compound mix was applied to the upper portion of the ChemoTx plate. Plates were incubated at 37° C. for three hours and then the cells removed from the upper portion by rinsing with PBS and scraping. The filter was dried then stained with HEMA 3 Staining System (Fisher Scientific). The absorbance of the filter was read at 590 nm and IC50s were determined using Symyx Assay Explorer.
In the case of `Cc1noc(-c2ccc(-c3ccc(C4(C(=O)O)CC4)cc3)cc2)c1C(O)COCc1ccccc1` (single isomer, unassigned) [Compound 47, 1-{4′-[4-(2-Benzyloxy-1-hydroxy-ethyl)-3-methyl-isoxazol-5-yl]-biphenyl-4-yl}-cyclopropanecarboxylic acid], the IC50 is reported as less than 100 nM. `Cc1noc(-c2ccc(-c3ccc(C4(C(=O)O)CC4)cc3)cc2)c1NC(C)CCc1ccccc1` (single isomer, unassigned) [Compound 51, 1-{4′-[3-Methyl-4-(1-methyl-3-phenyl-propylamino)-isoxazol-5-yl]-biphenyl-4-yl}-cyclopropanecarboxylic acid] was tested, and the IC50 was less than 100 nM. With `Cc1noc(-c2ccc(-c3ccc(C4(C(=O)O)CC4)cc3)cc2)c1NC(C)CCc1cccc(Cl)c1` (single isomer, unassigned) [Compound 57, 1-(4′-{4-[3-(3-Chloro-phenyl)-1-methyl-propylamino]-3-methyl-isoxazol-5-yl}-biphenyl-4-yl)-cyclopropanecarboxylic acid] the IC50 was less than 100 nM.

These molecules were tested against T1, human LPA1 (Homo sapiens, UniProt Q92633) (assay: LPA1 calcium flux assay (HLPA1 Ca Flux)). Conditions: CHO cells stably expressing human LPA1, stimulated with 10 nM LPA.
T1 construct: the full-length cDNA for human LPA1 was obtained by PCR of the reverse transcription reaction; expressed in transfected cells
T1 sequence (Q92633 whole entry): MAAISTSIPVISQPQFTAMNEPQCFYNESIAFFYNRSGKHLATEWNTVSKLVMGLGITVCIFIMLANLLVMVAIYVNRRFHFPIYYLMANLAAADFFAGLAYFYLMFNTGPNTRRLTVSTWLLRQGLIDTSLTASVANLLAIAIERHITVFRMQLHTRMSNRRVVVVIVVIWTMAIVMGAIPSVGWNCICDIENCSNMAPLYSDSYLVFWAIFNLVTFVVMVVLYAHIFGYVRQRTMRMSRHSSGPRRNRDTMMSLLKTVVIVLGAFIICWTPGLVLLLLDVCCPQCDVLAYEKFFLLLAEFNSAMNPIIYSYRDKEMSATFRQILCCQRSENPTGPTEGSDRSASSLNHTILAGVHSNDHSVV
Type: cell-based
Description: A 1.1 kb cDNA encoding the human LPA1 receptor was cloned from human lung. Human lung RNA (Clontech Laboratories, Inc. USA) was reverse transcribed using the RETROscript kit (Ambion, Inc.) and the full-length cDNA for human LPA1 was obtained by PCR of the reverse transcription reaction. The nucleotide sequence of the cloned human LPA1 was determined by sequencing and confirmed to be identical to the published human LPA1 sequence (An et al. Biochem. Biophys. Res. Commun. 231:619 (1997). The cDNA was cloned into the pcDNA5/FRT expression plasmid and transfected in CHO cells using lipofectamine 2000 (Invitrogen Corp., USA). Clones stably expressing human LPA1 were selected using hygromycin and identified as cells that show Ca-influx in response to LPA.
Human LPA1 or LPA3 expressing CHO cells are seeded at 20,000-45,000 cells per well in a 96-well poly-D-lysine coated plate one or two days before the assay. Prior to the assay, the cells are washed once with PBS and then cultured in serum-free media overnight. On the day of the assay, a calcium indicator dye (Calcium 4, Molecular Devices) in assay buffer (HBSS with Ca^2+ and Mg^2+ and containing 20 mM Hepes and 0.3% fatty-acid free human serum albumin) is added to each well and incubation continued for 1 hour at 37° C. […] of test compounds in 2.5% DMSO are added to the cells and incubation continued at room temperature for 30 minutes. Cells are the stimulated by the addition of 10 nM LPA and intracellular Ca^2+ measured using the Flexstation 3 (Molecular Devices). IC50s are determined using Graphpad prism analysis of drug titration curves.
`Cc1cccc(CCCC(O)c2c(C)noc2-c2ccc(-c3ccc(C4(C(=O)O)CC4)cc3)cc2)c1` (stereo not shown) [Compound 37, 1-{4′-[4-(1-Hydroxy-4-m-tolyl-butyl)-3-methyl-isoxazol-5-yl]-biphenyl-4-yl}-cyclopropanecarboxylic acid] was tested, and the IC50 was less than 300 nM. Molecule `Cc1noc(-c2ccc(-c3ccc(C4(C(=O)O)CC4)cc3)cc2)c1C(O)CCCc1ccc(C(F)(F)F)cc1` (stereo not shown) [Compound 39, 1-(4′-{4-[1-Hydroxy-4-(4-trifluoromethyl-phenyl)-butyl]-3-methyl-isoxazol-5-yl}-biphenyl-4-yl)-cyclopropanecarboxylic acid] has an IC50 of less than 300 nM. Work on `Cc1noc(-c2ccc(-c3ccc(C4(C(=O)O)CC4)cc3)cc2)c1C(O)CCCc1ccccc1C(F)(F)F` (stereo not shown) [Compound 40, 1-(4′-{4-[1-Hydroxy-4-(2-trifluoromethyl-phenyl)-butyl]-3-methyl-isoxazol-5-yl}-biphenyl-4-yl)-cyclopropanecarboxylic acid] yielded an IC50 of less than 300 nM. `Cc1noc(-c2ccc(-c3ccc(C4(C(=O)O)CC4)cc3)cc2)c1C(O)C(C)CCc1ccccc1` (stereo not shown) [Compound 44, 1-{4′-[4-(1-Hydroxy-2-methyl-4-phenyl-butyl)-3-methyl-isoxazol-5-yl]-biphenyl-4-yl}-cyclopropanecarboxylic acid] showed an IC50 of less than 300 nM. `Cc1noc(-c2ccc(-c3ccc(C4(C(=O)O)CC4)cc3)cc2)c1C(O)C(C)(C)CCc1ccccc1` (stereo not shown) [Compound 45, 1-{4′-[4-(1-Hydroxy-2,2-dimethyl-4-phenyl-butyl)-3-methyl-isoxazol-5-yl]-biphenyl-4-yl}-cyclopropanecarboxylic acid] gave an IC50 of less than 300 nM. For `Cc1noc(-c2ccc(-c3ccc(C4(C(=O)O)CC4)cc3)cc2)c1C(F)(F)CCCc1ccccc1` [Compound 46, 1-{4′-[4-(1,1-Difluoro-4-phenyl-butyl)-3-methyl-isoxazol-5-yl]-biphenyl-4-yl}-cyclopropanecarboxylic acid], the IC50 was 1000 to 50000 nM. `COc1ccc(CCC(C)Nc2c(C)noc2-c2ccc(-c3ccc(C4(C(=O)O)CC4)cc3)cc2)cc1` (stereo not shown) [Compound 50, 1-(4′-{4-[3-(4-Methoxy-phenyl)-1-methyl-propylamino]-3-methyl-isoxazol-5-yl}-biphenyl-4-yl)-cyclopropanecarboxylic acid] was tested, and the IC50 was less than 300 nM. `Cc1noc(-c2ccc(-c3ccc(C4(C(=O)O)CC4)cc3)cc2)c1NC(C)CCc1ccccc1Cl` (stereo not shown) [Compound 53, 1-(4′-{4-[3-(2-Chloro-phenyl)-1-methyl-propylamino]-3-methyl-isoxazol-5-yl}-biphenyl-4-yl)-cyclopropanecarboxylic acid] was tested, and the IC50 was less than 300 nM. `Cc1noc(-c2ccc(-c3ccc(C4(C(=O)O)CC4)cc3)cc2)c1NC(C)CCc1c(F)cccc1Cl` (stereo not shown) [Compound 55, 1-(4′-{4-[3-(2-Chloro-6-fluoro-phenyl)-1-methyl-propylamino]-3-methyl-isoxazol-5-yl}-biphenyl-4-yl)-cyclopropanecarboxylic acid] showed an IC50 of less than 300 nM. `Cc1noc(-c2ccc(-c3ccc(C4(C(=O)O)CC4)cc3)cc2)c1C(O)COCc1cccc(C(F)(F)F)c1` (stereo not shown) [Compound 58, 1-(4′-{4-[1-Hydroxy-2-(3-trifluoromethyl-benzyloxy)-ethyl]-3-methyl-isoxazol-5-yl}-biphenyl-4-yl)-cyclopropanecarboxylic acid] was tested, and the IC50 was less than 300 nM. `Cc1noc(-c2ccc(-c3ccc(C4(C(=O)O)CC4)cc3)cc2)c1C(O)COCCc1ccccc1` (stereo not shown) [Compound 59, 1-{4′-[4-(1-Hydroxy-2-phenethyloxy-ethyl)-3-methyl-isoxazol-5-yl]-biphenyl-4-yl}-cyclopropanecarboxylic acid] was tested, and the IC50 was less than 300 nM. In the case of `Cc1noc(-c2ccc(-c3ccc(C4(C(=O)O)CC4)cc3)cc2)c1C(O)C(F)(F)CCc1ccc(F)cc1` (stereo not shown) [Compound 62, 1-(4′-{4-[2,2-Difluoro-4-(4-fluoro-phenyl)-1-hydroxy-butyl]-3-methyl-isoxazol-5-yl}-biphenyl-4-yl)-cyclopropanecarboxylic acid], the IC50 is reported as less than 300 nM. `Cc1noc(-c2ccc(-c3ccc(C4(C(=O)O)CC4)cc3)cc2)c1C(O)CSCc1cccc(C(F)(F)F)c1` (stereo not shown) [Compound 63, 1-(4′-{4-[1-Hydroxy-2-(3-trifluoromethyl-benzylsulfanyl)-ethyl]-3-methyl-isoxazol-5-yl}-biphenyl-4-yl)-cyclopropanecarboxylic acid] was tested, and the IC50 was less than 300 nM. `Cc1noc(-c2ccc(-c3ccc(C4(C(=O)O)CC4)cc3)cc2)c1C(O)C(F)(F)CCc1ccc(C(F)(F)F)cc1` (stereo not shown) [Compound 64, 1-(4′-{4-[2,2-Difluoro-1-hydroxy-4-(4-trifluoromethyl-phenyl)-butyl]-3-methyl-isoxazol-5-yl}-biphenyl-4-yl)-cyclopropanecarboxylic acid] showed an IC50 of less than 300 nM. `CCC(CCc1ccccc1)Nc1c(C)noc1-c1ccc(-c2ccc(C3(C(=O)O)CC3)cc2)cc1` (stereo not shown) [Compound 66, 1-{4′-[4-(1-Ethyl-3-phenyl-propylamino)-3-methyl-isoxazol-5-yl]-biphenyl-4-yl}-cyclopropanecarboxylic acid] gave an IC50 of less than 300 nM. `Cc1noc(-c2ccc(-c3ccc(C4(C(=O)O)CC4)cc3)cc2)c1NC(C)CC(C)(C)c1ccccc1` (stereo not shown) [Compound 69, 1-{4′-[4-(1,3-Dimethyl-3-phenyl-butylamino)-3-methyl-isoxazol-5-yl]-biphenyl-4-yl}-cyclopropanecarboxylic acid] gave an IC50 of less than 300 nM. Molecule `Cc1noc(-c2ccc(-c3ccc(C4(C(=O)O)CC4)cc3)cc2)c1C(O)CC(C)(C)Cc1ccccc1` (stereo not shown) [Compound 70, 1-{4′-[4-(1-Hydroxy-3,3-dimethyl-4-phenyl-butyl)-3-methyl-isoxazol-5-yl]-biphenyl-4-yl}-cyclopropanecarboxylic acid] has an IC50 of less than 300 nM. `Cc1noc(-c2ccc(-c3ccc(C4(C(=O)NS(C)(=O)=O)CC4)cc3)cc2)c1CSCCc1ccccc1` [Compound 71, N-[1-[4′-(3-Methyl-4-phenethylsulfanylmethyl-isoxazol-5-yl)-biphenyl-4-yl]-cyclopropanecarbonyl]-methanesulfonamide] showed an IC50 of less than 300 nM. Work on `Cc1noc(-c2ccc(-c3ccc(C4(C(=O)NS(C)(=O)=O)CC4)cc3)cc2)c1C(O)COCCc1ccccc1` (stereo not shown) [Compound 74, N-(1-{4′-[4-(1-Hydroxy-2-phenethyloxy-ethyl)-3-methyl-isoxazol-5-yl]-biphenyl-4-yl}-cyclopropanecarbonyl)-methanesulfonamide] yielded an IC50 of less than 300 nM. For `Cc1noc(-c2ccc(-c3ccc(C4(C(=O)NS(C)(=O)=O)CC4)cc3)cc2)c1CC(F)(F)CCc1ccccc1` [Compound 75, N-(1-{4′-[4-(2,2-Difluoro-4-phenyl-butyl)-3-methyl-isoxazol-5-yl]-biphenyl-4-yl}-cyclopropanecarbonyl)-methanesulfonamide], the IC50 was less than 300 nM. With `Cc1ccc(S(=O)(=O)NC(=O)C2(c3ccc(-c4ccc(-c5onc(C)c5C(O)CCCc5ccccc5)cc4)cc3)CC2)cc1` (stereo not shown) [Compound 78, N-(1-{4′-[4-(1-Hydroxy-4-phenyl-butyl)-3-methyl-isoxazol-5-yl]-biphenyl-4-yl}-cyclopropanecarbonyl)-4-methyl-benzenesulfonamide] the IC50 was less than 300 nM. In the case of `Cc1noc(-c2ccc(-c3ccc(C4(C(=O)NS(=O)(=O)C5CC5)CC4)cc3)cc2)c1C(O)CCCc1ccccc1` (stereo not shown) [Compound 79], the IC50 is reported as less than 300 nM.
